According to ChEMBL document CHEMBL2385030, “Crystallographic Investigation and Selective Inhibition of Mutant Isocitrate Dehydrogenase” (ACS Med Chem Lett, 2013):

Experiments:
WI-38 = test: Cytotoxicity against human WI38 cells assessed as growth inhibition after 48 hrs by MTS assay; type: cell-based; settings: WI-38, 48 h
[1] = molecular target: Isocitrate dehydrogenase [NADP] cytoplasmic (Homo sapiens, UniProt O75874); test: Inhibition of wild type IDH1 (unknown origin) expressed in Escherichia coli BL21 using […] as substrate incubated for 5 mins prior to substrate addition measured every 30 secs
Isocitrate dehydrogenase [NADP] cytoplasmic, sequence (O75874 whole entry): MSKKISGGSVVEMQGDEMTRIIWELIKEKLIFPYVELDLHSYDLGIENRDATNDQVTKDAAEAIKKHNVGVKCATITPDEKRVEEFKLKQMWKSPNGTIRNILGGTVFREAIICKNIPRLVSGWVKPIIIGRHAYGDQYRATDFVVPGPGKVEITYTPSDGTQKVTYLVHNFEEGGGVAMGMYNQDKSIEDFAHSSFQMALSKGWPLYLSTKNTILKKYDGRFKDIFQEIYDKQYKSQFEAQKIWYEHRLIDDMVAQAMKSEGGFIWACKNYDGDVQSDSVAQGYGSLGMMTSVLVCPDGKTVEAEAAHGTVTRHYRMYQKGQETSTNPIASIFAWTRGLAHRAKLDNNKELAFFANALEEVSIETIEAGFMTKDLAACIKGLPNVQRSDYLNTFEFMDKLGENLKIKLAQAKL

| Ki [1] [µM] | Compound | EC50 (WI-38) [µM] |
| --- | --- | --- |
| – | Cc1cc(Cc2ccccc2)n(O)c(=O)c1 | > 50 |
| – | Cc1cc(Cc2ccc(O)cc2)n(O)c(=O)c1 | > 50 |
| – | O=c1cccc(Cc2ccccc2)n1O | > 50 |
| – | CC(C)c1cc(Cc2ccccc2)n(O)c(=O)c1 | > 50 |
| > 50 | Cc1cc(-c2ccccc2)n(O)c(=O)c1 | – |
